Values of other authors as cited in patent publication EP4616878A1, “CANNULA FOR RECTAL ADMINISTRATION OF AN ENEMA AND COMPOSITIONS FOR USE THEREWITH” (Cosmo Technologies Ltd., priority 2024, dated 2025).

Tests used:
[1] = target: T1, pregnane X receptor (PXR) (Homo sapiens, UniProt O75469); conditions: liver and intestinal cell lines; also downstream targets CYP3A4 and PgP
T1 sequence (O75469 1-434): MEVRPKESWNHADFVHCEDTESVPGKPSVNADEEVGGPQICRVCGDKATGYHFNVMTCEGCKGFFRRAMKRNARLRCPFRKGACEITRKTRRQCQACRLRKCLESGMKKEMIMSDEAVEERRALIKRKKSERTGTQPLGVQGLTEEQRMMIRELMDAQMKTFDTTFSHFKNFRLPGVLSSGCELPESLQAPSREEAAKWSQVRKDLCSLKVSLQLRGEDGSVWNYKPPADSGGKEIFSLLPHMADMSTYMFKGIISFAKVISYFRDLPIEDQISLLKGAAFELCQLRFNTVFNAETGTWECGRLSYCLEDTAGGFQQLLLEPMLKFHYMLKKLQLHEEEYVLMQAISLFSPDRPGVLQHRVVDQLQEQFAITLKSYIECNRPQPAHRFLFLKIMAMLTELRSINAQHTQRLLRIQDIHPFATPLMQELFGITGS

[2] = system: nuclear factor-KB (NFκB); conditions: cell line which lacks PXR expression
[3] = in vivo

**Q.** Which “effect on PXR” value [1] does the source give for `CO[C@H]1/C=C/O[C@@]2(C)Oc3c(C)c(O)c4c(O)c(cc(O)c4c3C2=O)NC(=O)/C(C)=C\C=C\[C@H](C)[C@H](O)[C@@H](C)[C@@H](O)[C@@H](C)[C@H](OC(C)=O)[C@@H]1C` [Rifamycin, Rifamycin SV] here?
**A.** Its value is “activate”.

**Q.** What about the “effect on NFκB” value [2] of the same compound?
**A.** Its value is “directly inhibited”.

**Q.** And the “absorption in the bloodstream” value [3]?
**A.** Its value is “negligible”.
